Results reported in ChEMBL document CHEMBL5247624, “N-sulfonylpiperidinedispiro-1,2,4,5-tetraoxanes exhibit potent in vitro antiplasmodial activity and in vivo efficacy in mice infected with P. berghei ANKA” (Eur J Med Chem, 2022).
Calls of active or inactive are those of the source. The calls are words filed in the database; no cut-off is given here.

How the values were obtained:
Plasmodium falciparum [1] = assay: Antiplasmodial activity against erythrocytic stage of chloroquine-sensitive Plasmodium falciparum 3D7 assessed as inhibition of parasite growth incubated for 3 days by HRP2-ELISA assay; type: functional, organism-based; conditions: 3D7, 72 h
Huh-7 = assay: Cytotoxicity against human Huh-7 cells assessed as reduction in cell viability incubated for 72 hrs by MTT assay; type: functional
Plasmodium falciparum [2] = assay: Antiplasmodial activity against erythrocytic stage of chloroquine-sensitive Plasmodium falciparum 3D7 infected in human RBC assessed as increase in intracellular ROS level by measuring green fluorescence at 10 uM incubated for 3 hrs by H2DCFDA probe based fluorescence microscopic analysis; type: functional, organism-based; conditions: Erythrocyte
Plasmodium berghei [3] = assay: Antiplasmodial activity against Plasmodium berghei ANKA infected in Swiss albino mouse assessed as partial cure by measuring parasitemia at 60 mg/kg/day,ip qd measured after 48 hrs post administration by Giemsa staining assay; type: functional, organism-based
Plasmodium falciparum [4] = assay: Antiplasmodial activity against erythrocytic stage of chloroquine-sensitive Plasmodium falciparum 3D7 infected in human RBC assessed as increase in intracellular ROS level at 10 uM incubated for 3 hrs by H2DCFDA probe based flow cytometry; type: functional, organism-based; conditions: Erythrocyte
Plasmodium berghei [5] = assay: Antiplasmodial activity against Plasmodium berghei ANKA infected in Swiss albino mouse assessed as parasite recrudescence by measuring parasitemia at 60 mg/kg/day,ip qd administrated for 4 subsequent days by Giemsa staining assay; type: functional
Plasmodium berghei [6] = assay: Antiplasmodial activity against Plasmodium berghei ANKA infected in Swiss albino mouse assessed as reduction of parasitaemia at 60 mg/kg/day,ip qd measured at 24 hrs post administration by Giemsa staining assay relative to control; type: functional; parameters: scale not given: the % may be the effect or the level left
Plasmodium berghei [7] = assay: Antiplasmodial activity against Plasmodium berghei ANKA infected in Swiss albino mouse assessed as reduction of parasitaemia at 60 mg/kg/day,ip qd administrated for 5 subsequent days by Giemsa staining assay relative to control; type: functional; parameters: scale not given: the % may be the effect or the level left
Plasmodium berghei [8] = assay: Antiplasmodial activity against Plasmodium berghei ANKA infected in Swiss albino mouse assessed as reduction of parasitaemia at 60 mg/kg/day,ip qd measured after 72 hrs post administration by Giemsa staining assay; type: functional, organism-based
Plasmodium berghei [9] = assay: Antiplasmodial activity against Plasmodium berghei infected in Swiss Webster mouse assessed as reduction of parasitaemia by measuring partial cure at 2 mg/kg/day,po administrated for 4 days; type: functional; parameters: scale not given: the % may be the effect or the level left; conditions: time 4 day
Plasmodium falciparum [10] = assay: Antiplasmodial activity against Plasmodium falciparum W2 infected in human RBC assessed as inhibition of parasite growth incubated for 48 hrs by flow cytometry; type: functional, organism-based; conditions: W2, Erythrocyte
Plasmodium berghei [11] = assay: Antiplasmodial activity against Plasmodium berghei ANKA infected in Swiss albino mouse assessed as increase in animal survival rate at 60 mg/kg/day,ip qd administrated for 5 subsequent days; type: functional, organism-based
Plasmodium berghei [12] = assay: Antiplasmodial activity against Plasmodium berghei ANKA infected in Swiss albino mouse assessed as reduction of parasitaemia at 60 mg/kg/day,ip qd measured after 72 hrs post administration by Giemsa staining assay relative to control; type: functional; parameters: scale not given: the % may be the effect or the level left
Plasmodium berghei [13] = assay: Antiplasmodial activity against Plasmodium berghei ANKA infected in Swiss albino mouse assessed as increase in parasite clearance rate at 60 mg/kg/day,ip qd administrated for 5 subsequent days by Giemsa staining assay; type: functional, organism-based

| Structure (SMILES) | IC50 (Plasmodium falciparum [1]) [nM] | CC50 (Huh-7) [µg/mL] | also measured |
| --- | --- | --- | --- |
| O=S(=O)(c1ccc(F)cc1)N1CCC2(CC1)OOC1(CCCC1)OO2 | 67 | > 100 |  |
| CCCS(=O)(=O)N1CCC2(CC1)OOC1(CCCC1)OO2 | 9450 | > 100 |  |
| CS(=O)(=O)N1CCC2(CC1)OOC1(CCCCCC1)OO2 | 9.67 | > 100 | Activity (Plasmodium falciparum [2]): Active; Activity (Plasmodium berghei [3]): inactive; Activity (Plasmodium falciparum [4]): Active; Activity (Plasmodium berghei [5]): >0.1% |
| COc1ccc(S(=O)(=O)N2CCC3(CC2)OOC2(CCCC2)OO3)cc1 | 25.3 | > 100 |  |
| CS(=O)(=O)N1CCC2(CC1)OOC1(CCCCC1)OO2 | 16.3 | > 100 |  |
| O=S(=O)(Cc1ccccc1)N1CCC2(CC1)OOC1(CCCCCC1)OO2 | 64.7 | > 100 |  |
| CCCS(=O)(=O)N1CCC2(CC1)OOC(C)(c1ccccc1)OO2 | 129 | > 100 |  |
| CCN(CC)CCCC(C)Nc1ccnc2cc(Cl)ccc12 (stereo not drawn) [CHLOROQUINE] | 4.36 | > 100 | Activity (Plasmodium berghei [6]): 100% |
| O=S(=O)(c1ccc(F)cc1)N1CCC2(CC1)OOC1(CCCCC1)OO2 | 77.4 | > 100 |  |
| CS(=O)(=O)N1CCC2(CC1)OOC1(CCN(S(C)(=O)=O)CC1)OO2 | 39.6 | > 100 |  |
| CCS(=O)(=O)N1CCC2(CC1)OOC1(CCCCC1)OO2 | 10.5 | > 100 | Activity (Plasmodium falciparum [2]): Active; Activity (Plasmodium berghei [3]): inactive; Activity (Plasmodium berghei [7]): 100%; Activity (Plasmodium falciparum [4]): Active; Activity (Plasmodium berghei [5]): >0.1%; Activity (Plasmodium berghei [8]): Active |
| C1CCCC2(CC1)OOC1(CCCCCC1)OO2 | 39.4 | > 100 |  |
| Cc1ccc(S(=O)(=O)N2CCC3(CC2)OOC2(CCCC2)OO3)cc1 | 24.2 | > 100 |  |
| CCCS(=O)(=O)N1CCC2(CC1)OOC(C)(c1ccc(Cl)cc1)OO2 | 8360 | > 100 |  |
| CCS(=O)(=O)N1CCC2(CC1)OOC1(CCCCCC1)OO2 | 62.5 | > 100 |  |
| CCCS(=O)(=O)N1CCC2(CC1)OOC(C)(CC)OO2 | 23.3 | > 100 |  |
| C[C@@H]1CC[C@H]2[C@@H](C)C(=O)O[C@@H]3O[C@@]4(C)CC[C@@H]1[C@]32OO4 [ARTEMISININ] | 4.74 |  |  |
| CCS(=O)(=O)N1CCC2(CC1)OOC1(CCCC1)OO2 | 11.8 | > 100 |  |
| C[C@H]1[C@@H](O)O[C@@H]2O[C@@]3(C)CC[C@H]4[C@H](C)CC[C@@H]1[C@@]24OO3 [ARTENIMOL] | 0.7 | > 100 |  |
| CCCC1(C)OOC2(CCN(S(=O)(=O)CCC)CC2)OO1 | 10.9 | > 100 | Activity (Plasmodium falciparum [2]): Active; Activity (Plasmodium berghei [3]): inactive; Activity (Plasmodium falciparum [4]): Active; Activity (Plasmodium berghei [5]): >0.1% |
| O=S(=O)(c1ccc(F)cc1)N1CCC2(CC1)OOC1(CCCCCC1)OO2 | 37.4 | > 100 |  |
| CC(C)(N)CNC(=O)O[C@@H]1CCC[C@]2(C1)OOC1(O2)C2CC3CC(C2)CC1C3 (stereo partly drawn) |  |  | Activity (Plasmodium berghei [9]): 100%; EC50 (Plasmodium falciparum [10]): 1.8 nM |

| Structure (SMILES) | IC50 (Plasmodium falciparum [1]) [nM] | CC50 (Huh-7) [µg/mL] | also measured |
| --- | --- | --- | --- |
| O=S(=O)(c1ccc(Br)cc1F)N1CCC2(CC1)OOC1(CCCCCC1)OO2 | 10.4 | > 100 | Activity (Plasmodium falciparum [2]): Active; Activity (Plasmodium berghei [3]): inactive; Activity (Plasmodium falciparum [4]): Active; Activity (Plasmodium berghei [5]): >0.1% |
| O=S(=O)(CCCCl)N1CCC2(CC1)OOC1(CCCCCC1)OO2 | 13 | > 100 |  |
| CCCCS(=O)(=O)N1CCC2(CC1)OOC1(CCCCC1)OO2 | 57.2 | > 100 |  |
| C[C@H]1[C@H](OC(=O)CCC(=O)O)O[C@@H]2O[C@@]3(C)CC[C@H]4[C@H](C)CC[C@@H]1[C@@]24OO3 [ARTESUNATE] | 3.3 | > 100 |  |
| Cc1ccc(S(=O)(=O)N2CCC3(CC2)OOC2(CCCCCC2)OO3)cc1 | 55.3 | > 100 |  |
| COc1ccc(S(=O)(=O)N2CCC3(CC2)OOC2(CCCCC2)OO3)cc1 | 32.2 | > 100 |  |
| O=S(=O)(c1ccc(Br)cc1F)N1CCC2(CC1)OOC1(CCCC1)OO2 | 44.2 | > 100 |  |
| CCCS(=O)(=O)N1CCC2(CC1)OOC1(CCCCCC1)OO2 | 4.7 | > 100 | Activity (Plasmodium falciparum [2]): Active; Activity (Plasmodium berghei [3]): inactive; Activity (Plasmodium falciparum [4]): Active; Activity (Plasmodium berghei [5]): >0.1% |
| CCCS(=O)(=O)N1CCC2(CC1)OOC(C)(C1CC1)OO2 | 60.2 | > 100 |  |
| CCCS(=O)(=O)N1CCC2(CC1)OOC(C)(C)OO2 | 101 | > 100 |  |
| O=S(=O)(CCCCl)N1CCC2(CC1)OOC1(CCCCC1)OO2 | 40.6 | > 100 |  |
| O=S(=O)(Cc1ccccc1)N1CCC2(CC1)OOC1(CCCC1)OO2 | 20.6 | > 100 |  |
| Cc1ccc(S(=O)(=O)N2CCC3(CC2)OOC2(CCCCC2)OO3)cc1 | 40.2 | > 100 |  |
| CCCS(=O)(=O)N1CCC2(CC1)OOC(C)(C(C)C)OO2 | 21.4 | > 100 |  |
| O=S(=O)(CCCCl)N1CCC2(CC1)OOC1(CCCC1)OO2 | 8.43 | > 100 | Activity (Plasmodium falciparum [2]): Active; Activity (Plasmodium berghei [3]): Active; Activity (Plasmodium falciparum [4]): Active; Activity (Plasmodium berghei [5]): inactive; Activity (Plasmodium berghei [11]): Active; Activity (Plasmodium berghei [12]): 100%; Activity (Plasmodium berghei [13]): Active; Activity (Plasmodium berghei [8]): Active; Activity (Plasmodium berghei [6]): <0.1% |
| O=S(=O)(Cc1ccccc1)N1CCC2(CC1)OOC1(CCCCC1)OO2 | 49.4 | > 100 |  |
| COc1ccc(S(=O)(=O)N2CCC3(CC2)OOC2(CCCCCC2)OO3)cc1 | 46.6 | > 100 |  |
| CS(=O)(=O)N1CCC2(CC1)OOC1(CCCC1)OO2 | 41.9 | > 100 |  |
| CCCCS(=O)(=O)N1CCC2(CC1)OOC1(CCCC1)OO2 | 41.9 | > 100 |  |
| O=S(=O)(c1ccc(Br)cc1F)N1CCC2(CC1)OOC1(CCCCC1)OO2 | 322 | > 100 |  |
| CCCS(=O)(=O)N1CCC2(CC1)OOC1(CCCCC1)OO2 | 12.9 | > 100 | Activity (Plasmodium falciparum [2]): Active; Activity (Plasmodium berghei [3]): inactive; Activity (Plasmodium falciparum [4]): Active; Activity (Plasmodium berghei [5]): >0.1% |
| CCCCS(=O)(=O)N1CCC2(CC1)OOC1(CCCCCC1)OO2 | 13.8 | > 100 |  |
